The values below are quoted from earlier work in patent US12576169B2, “Silicon-fluoride acceptor substituted radiopharmaceuticals and precursors thereof” (Technische Universität München, priority 2019, dated 2026).

The target of data set [1] is T1, PSMA (Homo sapiens, UniProt Q04609). The settings on record: after 1 h; literature; cited from earlier work.
Data set [2] deals with T1, PSMA. The note with it: PSMA binding affinity; literature; cited from earlier work.
For data set [3] the following is noted: radiolabeled established inhibitors; literature; cited from earlier work.

T1 sequence (Q04609 whole entry): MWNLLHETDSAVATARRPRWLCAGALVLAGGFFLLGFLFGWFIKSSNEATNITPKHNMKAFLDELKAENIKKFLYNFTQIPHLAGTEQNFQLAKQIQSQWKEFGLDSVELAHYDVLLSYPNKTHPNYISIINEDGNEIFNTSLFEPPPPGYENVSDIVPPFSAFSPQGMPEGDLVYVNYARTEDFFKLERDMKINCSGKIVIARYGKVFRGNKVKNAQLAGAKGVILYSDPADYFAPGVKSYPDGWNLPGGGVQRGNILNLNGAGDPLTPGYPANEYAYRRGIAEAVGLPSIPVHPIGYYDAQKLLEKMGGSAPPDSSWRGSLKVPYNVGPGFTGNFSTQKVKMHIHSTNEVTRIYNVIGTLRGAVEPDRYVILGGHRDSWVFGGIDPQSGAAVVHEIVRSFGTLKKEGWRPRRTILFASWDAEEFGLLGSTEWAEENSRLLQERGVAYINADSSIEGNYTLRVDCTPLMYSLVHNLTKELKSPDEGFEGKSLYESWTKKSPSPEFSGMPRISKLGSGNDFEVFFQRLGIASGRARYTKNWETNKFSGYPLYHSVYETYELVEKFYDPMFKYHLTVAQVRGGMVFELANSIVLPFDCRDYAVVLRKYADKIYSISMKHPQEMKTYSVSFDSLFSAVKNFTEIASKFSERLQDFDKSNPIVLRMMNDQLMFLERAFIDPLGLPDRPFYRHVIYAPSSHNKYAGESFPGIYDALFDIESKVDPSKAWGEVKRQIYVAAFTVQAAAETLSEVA

Usually IC50 stands for the concentration that inhibits the measured activity by half. With PSMA I&T [[^natGa/^68Ga]PSMA I&T], in data set [1], the “Internalization (1 h)” value is recorded as 59.2 ± 1.7. Besides, in data set [2], the IC50 was 9.3 ± 3.3 nM. Further, the “logP(o/w)” value in data set [3] is on record as −4.3 ± 0.3.

As to `O=C([O-])CN(CCN(CC(=O)[O-])Cc1cc(CCC(=O)NCCCCCC(=O)NCCCC[C@H](NC(=O)N[C@@H](CCC(=O)O)C(=O)O)C(=O)O)ccc1[O-])Cc1cc(CCC(=O)O)ccc1[O-].[68Ga+3].[OH3+]` [[^natGa/^68Ga]PSMA-11, PSMA-11], the “Internalization (1 h)” value in data set [1] was 91.1 ± 1.7. Further, the IC50 in data set [2] was 6.1 ± 0.8 nM. In addition, the “logP(o/w)” value in data set [3] is recorded as −4.1 ± 0.1.
